# Earlier results, collected in PMC7221964 (Molecules, 2020).
# Where two headings read alike, the source gives them in different places.
# Tested on: epigenetic reader proteins
# From the text: ITC studies provided thermodynamic parameters (Gibbs free energy of binding ΔG°, enthalpy of binding ΔH°, entropy of binding ΔS°) for the association between five ...
Structure (SMILES),recognition by reader proteins (different epigenetic reader proteins),recognition by reader proteins (panel of the same five reader proteins)
"C[N+](C)(C)CCSCC(N)C(=O)O (centres unmarked) [KCme3, trimethylthialysine]",well recognized,–
C[N+](C)(C)CCCCCC(N)C(=O)O (centres unmarked) [trimethylhomolysine],–,very well recognized
